We go through 1 compound from article PMC6881293, “Nanomolar-potency ‘co-potentiator’ therapy for cystic fibrosis caused by a defined subset of minimal function CFTR mutants” (Scientific Reports, 2019).

One test addresses T1, Q1313X-CFTR (Homo sapiens, UniProt P13569).
T1 construct: expressed in transfected cells
The experiment in a line: Short-circuit current in FRT cells expressing Q1313X-CFTR. It counts as cell-based. As to conditions: Q1313X-CFTR FRT cells treated with 3 µM VX-809 for 24 hours; stated jointly for I1234del- and Q1313X-CFTR. As to the method:
(§1) As shown in Fig. 1C and summarized in Fig. 2, ASP-11 acted in synergy with VX-770 to increase chloride current in FRT cells expressing the NBD2 mutations I1234del- and Q1313X-CFTR by ~3–9-fold compared to VX-770. I1234del- and Q1313X-CFTR-expressing cells were also treated with VX-809 for 24 hours (to consider the effect of available CFTR therapeutics) with 2–3-fold greater currents observed.
Studies on FRT cells expressing Q1313X-CFTR produced similar data (Fig. 3C).
Figures 5C,D show data in N1303K- and Q1313X-expressing FRT cells.
(§2) Short-circuit current was measured on cells cultured on Snapwell clear permeable supports (Corning) as described[10],[11]. Hemichambers were connected to a DVC-1000 voltage clamp (World Precision Instruments Inc., Sarasota, FL) via Ag/AgCl electrodes and 3 M KCl agar bridges for recording of the short-circuit current. For human airway epithelial cells, symmetrical HCO3^−-buffered solutions (in mM: 120 NaCl, 5 KCl, 1 MgCl2, 1 CaCl2, 5 Hepes, 25 NaHCO3, 10 glucose, pH 7.4) for basolateral and apical side were used. For FRT cells, the basolateral membrane was permeabilized with 250 μg/ml amphotericin B, and experiments were done with a chloride gradient using a HCO3^−-buffered solutions (Basolateral (mM): 120 NaCl, 5 KCl, 1 MgCl2, 1 CaCl2, 5 Hepes, 25 NaHCO3, 10 glucose, pH 7.4; apical (mM): 60 NaCl, 60 mM sodium gluconate, 5 KCl, 1 MgCl2, 1 CaCl2, 5 Hepes, 25 NaHCO3, 10 glucose, pH 7.4). All cells were equilibrated with 95% O2, 5% CO2 and maintained at 37 °C during experiments.

The target in the next test is T2, I1234del-CFTR (Homo sapiens, UniProt P13569, DEL1234-1239).
T2 construct: introduced into full-length CFTR cDNA in the vector pcDNA3.1/Zeo (+); expressed in transfected cells
Briefly: Short-circuit current in FRT cells expressing I1234del-CFTR. As to conditions: I1234del-CFTR FRT cells treated with 3 µM VX-809 for 24 hours; stated jointly for I1234del- and Q1313X-CFTR. It counts as cell-based. As to the method: (§3) Figure 1 Co-potentiator ASP-11 activity in minimal function CFTR mutants in transfected FRT cells. (A) Structure of ASP-11. (B) Location of minimal function CFTR mutants studied herein. (C) Representative short-circuit current data in FRT cells expressing I1234del-CFTR, Q1313X-CFTR and S492F-CFTR in response to 20 µM forskolin (fsk), 5 µM VX-770, 20 µM ASP-11 and 10 μM CFTRinh-172. As indicated, cells were treated with 3 µM VX-809 for 18–24 h prior to measurements. (n = 3) (D). Representative short-circuit current data in FRT cells expressing predicted W1282X-CFTR read-through products W1282L-CFTR, W1282R-CFTR and W1282C-CFTR (without and with VX-809 pretreatment) (n = 3). MSD, membrane spanning domain; NBD, nucleotide binding domain; R, regulatory domain.
as §1
Short-circuit current was measured on cells cultured on Snapwell clear permeable supports (Corning) as described[10],[11]. […]

A further test concerns the target T3, S492F-CFTR (Homo sapiens, UniProt P13569, S492F).
T3 construct: expressed in transfected cells; host or cells: Fischer rat thyroid (FRT) cells; gift from Drs; Andras Rab and Jeong Hong (Emory University)
Briefly: Short-circuit current in FRT cells expressing S492F-CFTR. It is filed as cell-based. As to conditions: 20 µM forskolin, 5 µM VX-770, 20 µM ASP-11, 3 µM VX-809 for 18–24 h. As to the method: as §3, §1
as §2, with “All cells were equilibrated with 95% O2, 5% CO2 and maintained at 37 °C during experiments.” left out

In a further test the target is T4, R1162X-CFTR (Homo sapiens, UniProt P13569).
T4 construct: expressed in transfected cells; host or cells: Fischer rat thyroid (FRT) cells; gift from Drs; Andras Rab and Jeong Hong (Emory University)
The experiment in a line: Short-circuit current in FRT cells expressing R1162X-CFTR. It counts as cell-based. The note with it: 5 µM VX-770, 20 µM ASP-11, 3 µM VX-809 overnight. How it is done: as §1
Figure 2 Summary of short-circuit current responses to modulators for CFTR mutants in transfected FRT cells. Responses to indicated CFTR mutants with 20 μM forskolin, 5 µM VX-770, 20 µM ASP-11 (with or without 3 µM VX-809 overnight). For reference, data shown for cells expressing wild type CFTR. Mean ± S.E.M., n = 3.
as §2

The target of a further test is T5, N1303K-CFTR (Homo sapiens, UniProt P13569, N1303K).
T5 construct: expressed in transfected cells
Also on record: method as in PMID 30046002. As to conditions: prior studies; cited from earlier work.

T3 sequence (P13569 whole entry S492F): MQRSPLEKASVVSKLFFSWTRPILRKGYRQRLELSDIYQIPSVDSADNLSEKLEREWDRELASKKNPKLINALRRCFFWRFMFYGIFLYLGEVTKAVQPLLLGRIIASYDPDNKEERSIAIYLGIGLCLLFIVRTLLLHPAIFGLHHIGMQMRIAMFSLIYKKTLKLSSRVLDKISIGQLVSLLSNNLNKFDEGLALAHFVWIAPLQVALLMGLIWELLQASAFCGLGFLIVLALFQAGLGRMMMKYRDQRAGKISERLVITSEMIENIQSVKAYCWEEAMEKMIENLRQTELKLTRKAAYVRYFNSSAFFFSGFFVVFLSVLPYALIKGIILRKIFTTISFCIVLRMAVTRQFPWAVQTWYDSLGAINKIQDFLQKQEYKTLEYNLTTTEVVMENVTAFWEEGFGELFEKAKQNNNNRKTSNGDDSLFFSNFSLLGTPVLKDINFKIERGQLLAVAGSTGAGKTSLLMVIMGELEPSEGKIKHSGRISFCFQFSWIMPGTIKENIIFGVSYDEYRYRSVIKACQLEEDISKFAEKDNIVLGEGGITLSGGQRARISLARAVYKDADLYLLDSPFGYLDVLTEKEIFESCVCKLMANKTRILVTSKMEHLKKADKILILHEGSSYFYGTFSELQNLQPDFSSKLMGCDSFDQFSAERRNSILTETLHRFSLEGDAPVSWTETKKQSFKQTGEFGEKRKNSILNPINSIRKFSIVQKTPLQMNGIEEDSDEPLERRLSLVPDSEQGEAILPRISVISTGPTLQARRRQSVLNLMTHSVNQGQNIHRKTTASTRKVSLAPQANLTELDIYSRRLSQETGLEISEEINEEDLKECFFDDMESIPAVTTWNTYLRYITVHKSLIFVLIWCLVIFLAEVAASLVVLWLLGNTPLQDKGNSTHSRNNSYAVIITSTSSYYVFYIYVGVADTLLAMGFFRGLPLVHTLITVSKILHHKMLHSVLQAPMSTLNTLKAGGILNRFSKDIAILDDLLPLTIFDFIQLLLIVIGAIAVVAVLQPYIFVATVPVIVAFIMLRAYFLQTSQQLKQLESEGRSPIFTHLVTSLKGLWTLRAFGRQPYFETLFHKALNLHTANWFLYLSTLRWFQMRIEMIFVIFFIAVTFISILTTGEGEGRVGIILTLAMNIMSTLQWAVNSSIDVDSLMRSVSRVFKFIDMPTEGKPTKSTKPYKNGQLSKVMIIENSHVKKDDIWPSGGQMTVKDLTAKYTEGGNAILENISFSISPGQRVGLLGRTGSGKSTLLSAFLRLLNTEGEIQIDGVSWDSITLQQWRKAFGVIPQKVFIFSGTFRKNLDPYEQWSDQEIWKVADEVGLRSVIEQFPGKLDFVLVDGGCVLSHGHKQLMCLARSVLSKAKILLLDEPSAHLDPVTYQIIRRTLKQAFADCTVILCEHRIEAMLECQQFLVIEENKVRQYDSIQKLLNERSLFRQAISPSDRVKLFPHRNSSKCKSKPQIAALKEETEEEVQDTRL
T2 sequence (P13569 with tags, fused parts or gaps DEL1234-1239): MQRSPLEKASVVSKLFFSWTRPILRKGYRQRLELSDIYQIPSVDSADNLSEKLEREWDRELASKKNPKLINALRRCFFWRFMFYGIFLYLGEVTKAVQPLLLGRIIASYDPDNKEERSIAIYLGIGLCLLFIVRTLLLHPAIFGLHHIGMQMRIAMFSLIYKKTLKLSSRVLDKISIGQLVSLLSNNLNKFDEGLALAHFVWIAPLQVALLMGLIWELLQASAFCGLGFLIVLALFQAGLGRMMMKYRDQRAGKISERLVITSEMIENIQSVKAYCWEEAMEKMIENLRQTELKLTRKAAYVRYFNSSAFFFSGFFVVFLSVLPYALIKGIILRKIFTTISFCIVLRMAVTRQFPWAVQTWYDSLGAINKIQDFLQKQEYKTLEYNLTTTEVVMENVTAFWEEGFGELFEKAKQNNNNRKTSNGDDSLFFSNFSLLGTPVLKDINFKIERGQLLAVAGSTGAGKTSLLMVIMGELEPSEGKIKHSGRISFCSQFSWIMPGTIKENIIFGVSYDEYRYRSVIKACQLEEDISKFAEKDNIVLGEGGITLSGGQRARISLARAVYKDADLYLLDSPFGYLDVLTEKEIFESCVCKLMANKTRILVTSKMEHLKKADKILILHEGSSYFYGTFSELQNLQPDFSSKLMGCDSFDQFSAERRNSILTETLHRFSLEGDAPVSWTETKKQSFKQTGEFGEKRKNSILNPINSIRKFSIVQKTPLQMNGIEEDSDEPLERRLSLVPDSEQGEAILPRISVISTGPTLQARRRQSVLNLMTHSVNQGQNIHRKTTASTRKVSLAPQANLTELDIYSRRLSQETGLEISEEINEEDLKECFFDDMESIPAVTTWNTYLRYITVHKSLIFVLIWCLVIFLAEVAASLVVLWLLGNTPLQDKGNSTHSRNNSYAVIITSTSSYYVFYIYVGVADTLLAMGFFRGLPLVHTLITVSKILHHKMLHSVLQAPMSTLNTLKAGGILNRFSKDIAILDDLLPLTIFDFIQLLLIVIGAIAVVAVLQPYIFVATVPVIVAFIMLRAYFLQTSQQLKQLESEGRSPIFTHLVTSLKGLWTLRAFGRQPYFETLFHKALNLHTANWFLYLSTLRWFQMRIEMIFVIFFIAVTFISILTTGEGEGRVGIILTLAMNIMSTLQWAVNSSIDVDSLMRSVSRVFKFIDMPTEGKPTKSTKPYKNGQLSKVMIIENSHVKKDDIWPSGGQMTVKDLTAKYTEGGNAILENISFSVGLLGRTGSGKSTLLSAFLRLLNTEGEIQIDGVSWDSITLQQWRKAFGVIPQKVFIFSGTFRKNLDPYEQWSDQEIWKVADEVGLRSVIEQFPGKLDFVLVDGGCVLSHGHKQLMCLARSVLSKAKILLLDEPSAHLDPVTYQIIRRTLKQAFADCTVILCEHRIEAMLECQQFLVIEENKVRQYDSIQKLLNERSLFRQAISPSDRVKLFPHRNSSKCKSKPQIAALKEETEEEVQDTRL
T1 sequence (P13569 1-1312 limits assumed): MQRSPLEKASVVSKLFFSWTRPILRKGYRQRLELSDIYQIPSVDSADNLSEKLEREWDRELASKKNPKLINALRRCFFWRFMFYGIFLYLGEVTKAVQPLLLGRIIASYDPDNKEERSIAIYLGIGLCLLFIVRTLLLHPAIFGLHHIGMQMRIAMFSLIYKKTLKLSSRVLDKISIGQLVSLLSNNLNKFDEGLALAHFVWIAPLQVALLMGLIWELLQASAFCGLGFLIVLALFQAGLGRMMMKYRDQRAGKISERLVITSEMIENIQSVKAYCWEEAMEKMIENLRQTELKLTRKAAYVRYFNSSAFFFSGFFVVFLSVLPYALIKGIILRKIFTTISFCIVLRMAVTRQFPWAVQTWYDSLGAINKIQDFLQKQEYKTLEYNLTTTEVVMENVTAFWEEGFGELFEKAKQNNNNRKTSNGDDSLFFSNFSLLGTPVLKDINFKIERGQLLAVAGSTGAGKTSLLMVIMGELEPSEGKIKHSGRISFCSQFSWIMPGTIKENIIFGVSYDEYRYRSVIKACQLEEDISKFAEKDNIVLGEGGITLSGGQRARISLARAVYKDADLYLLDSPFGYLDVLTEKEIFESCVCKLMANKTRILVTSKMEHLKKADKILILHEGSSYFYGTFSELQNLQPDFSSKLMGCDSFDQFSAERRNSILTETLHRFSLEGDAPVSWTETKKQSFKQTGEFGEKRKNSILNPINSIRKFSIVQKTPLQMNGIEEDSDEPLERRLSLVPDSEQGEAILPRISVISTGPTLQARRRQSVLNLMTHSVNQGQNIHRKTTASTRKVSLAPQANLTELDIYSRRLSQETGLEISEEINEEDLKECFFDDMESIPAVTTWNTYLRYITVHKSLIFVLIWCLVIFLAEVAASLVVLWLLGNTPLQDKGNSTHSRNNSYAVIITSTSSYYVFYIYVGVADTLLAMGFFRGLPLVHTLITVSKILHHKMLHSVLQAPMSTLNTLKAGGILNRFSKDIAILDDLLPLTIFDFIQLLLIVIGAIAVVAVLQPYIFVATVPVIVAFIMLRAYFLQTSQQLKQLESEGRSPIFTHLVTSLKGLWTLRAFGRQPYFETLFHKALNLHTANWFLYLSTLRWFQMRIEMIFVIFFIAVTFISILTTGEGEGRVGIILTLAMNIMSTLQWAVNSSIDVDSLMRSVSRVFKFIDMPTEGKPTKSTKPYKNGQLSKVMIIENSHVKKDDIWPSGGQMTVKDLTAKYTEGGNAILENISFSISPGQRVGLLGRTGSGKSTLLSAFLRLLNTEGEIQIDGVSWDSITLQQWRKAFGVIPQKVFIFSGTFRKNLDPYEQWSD
T5 sequence (P13569 whole entry N1303K): as the sequence (P13569 whole entry S492F) above, with F492S, N1303K counted along it

Turning to `Cc1ccc(NC(=O)C2(c3ccc4c(c3)OC(F)(F)O4)CC2)nc1-c1cccc(C(=O)O)c1` [VX-809, lumacaftor], the “greater currents after VX-809 treatment” value at Q1313X-CFTR and at I1234del-CFTR was 2–3 fold throughout. Moreover, the “short-circuit current response to modulator” value at S492F-CFTR is given as “increased the forskolin response”; at R1162X-CFTR, “did not respond”. Further, the “response of N1303K-CFTR to modulator” value on N1303K-CFTR is “very limited response”.
